Bounds are passed on as bounds.

Among the data in the supplement of paper PMC11368000 are POD vs vehicle values, retold here.

The first experiment deals with 1434 (donor line of iPSC-derived cardiomyocytes). Put plainly: POD (EC05) for decrease in beat frequency (negative chronotrope) vs vehicle; higher = less potent (higher point of departure). The conditions noted are these: exposure time: 90 min. In a few lines:
(§1)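 Points of departure specific to each donor were obtained from hierarchical Bayesian Hill fits to vehicle-normalised beat frequency, decay-to-rise ratio or peak frequency. Thresholds were set at 5% change, or 95% loss in the case of peak frequency. The cells were human iPSC-derived cardiomyocytes from 16 donors, exposed for 90 min at 37 °C to 0.1, 1, 10 and 100 µM (final, 0.5% DMSO), with Ca2+ flux read on a FLIPR Tetra before and after exposure.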
`O=C(O)C(F)(F)C(F)(F)OC(F)(F)F` [Perfluoro-3-methoxypropanoic_acid] gave a POD vs vehicle above 100 µM.
Regarding `O=C(O)C(F)(F)C(F)(F)C(F)(F)OC(F)(C(F)(F)F)C(F)(F)F` [Perfluoro-4-isopropoxybutanoic_acid], the POD vs vehicle was above 100 µM.
For the molecule `O=C(O)C(F)(F)C(F)(F)C(F)(F)F` [Perfluorobutanoic_acid], the POD vs vehicle was above 100 µM.
As for `O=C(O)C(F)(F)C(F)(F)C(F)(F)C(F)(F)C(F)(F)C(F)(F)C(F)(F)C(F)(F)C(F)(F)F` [Perfluorodecanoic_acid], the POD vs vehicle is 12.4 µM.
Still for that read-out and setting: next, `O=C(O)C(F)(F)C(F)(F)C(F)(F)C(F)(F)C(F)(F)C(F)(F)F` [Perfluoroheptanoic_acid]: above 100 µM; `NS(=O)(=O)C(F)(F)C(F)(F)C(F)(F)C(F)(F)C(F)(F)C(F)(F)F` [Perfluorohexanesulfonamide]: 9.37 µM; `O=S(=O)(O)C(F)(F)C(F)(F)C(F)(F)C(F)(F)C(F)(F)C(F)(F)F` [Perfluorohexanesulfonic_acid]: 63.6 µM.
For the molecule `O=C(O)C(F)(F)C(F)(F)C(F)(F)C(F)(F)C(F)(F)F` [Perfluorohexanoic_acid], the POD vs vehicle is above 100 µM.
As for `O=C(O)C(F)(F)C(F)(F)C(F)(F)C(F)(F)C(F)(F)C(F)(F)C(F)(F)C(F)(F)F` [Perfluorononanoic_acid], the POD vs vehicle is 20 µM.
`NC(=O)C(F)(F)C(F)(F)C(F)(F)C(F)(F)C(F)(F)C(F)(F)C(F)(F)F` [Perfluorooctanamide] showed a POD vs vehicle above 100 µM.
Still for that read-out and setting: as for `N=C(N)C(F)(F)C(F)(F)C(F)(F)C(F)(F)C(F)(F)C(F)(F)C(F)(F)F` [Perfluorooctanamidine], the figure is above 100 µM.
As for `O=S(=O)(O)C(F)(F)C(F)(F)C(F)(F)C(F)(F)C(F)(F)C(F)(F)C(F)(F)C(F)(F)F` [Perfluorooctanesulfonic_acid], the POD vs vehicle was determined as 13.3 µM.
As to `O=C(O)C(F)(F)C(F)(F)C(F)(F)C(F)(F)C(F)(F)C(F)(F)C(F)(F)F` [Perfluorooctanoic_acid], the POD vs vehicle came to 26.1 µM.
The molecule `O=C(O)C(F)(F)C(F)(F)C(F)(F)C(F)(F)F` [Perfluoropentanoic_acid] showed a POD vs vehicle above 100 µM.
Take `O=C(O)C(F)(F)C(F)(F)F` [Perfluoropropanoic_acid]: the POD vs vehicle was above 100 µM.
In the case of `O=S(=O)([O-])C(F)(F)C(F)(F)C(F)(F)C(F)(F)F.[K+]` [Potassium_perfluorobutanesulfonate], the POD vs vehicle is above 100 µM.

For the next experiment, the system named is 20084 (donor line of iPSC-derived cardiomyocytes). Described as above. The conditions noted are these: exposure time: 90 min. In a few lines: as §1
With `O=C(O)C(F)(F)C(F)(F)OC(F)(F)F` [Perfluoro-3-methoxypropanoic_acid], the POD vs vehicle is above 100 µM.
The molecule `O=C(O)C(F)(F)C(F)(F)C(F)(F)OC(F)(C(F)(F)F)C(F)(F)F` [Perfluoro-4-isopropoxybutanoic_acid] displayed a POD vs vehicle above 100 µM.
Take `O=C(O)C(F)(F)C(F)(F)C(F)(F)F` [Perfluorobutanoic_acid]: the POD vs vehicle was above 100 µM.
The molecule `O=C(O)C(F)(F)C(F)(F)C(F)(F)C(F)(F)C(F)(F)C(F)(F)C(F)(F)C(F)(F)C(F)(F)F` [Perfluorodecanoic_acid] showed a POD vs vehicle of 77.6 µM.
`O=C(O)C(F)(F)C(F)(F)C(F)(F)C(F)(F)C(F)(F)C(F)(F)F` [Perfluoroheptanoic_acid] yielded a POD vs vehicle above 100 µM.
On the same count and under the same terms, as for `NS(=O)(=O)C(F)(F)C(F)(F)C(F)(F)C(F)(F)C(F)(F)C(F)(F)F` [Perfluorohexanesulfonamide], the figure is 54.4 µM; as for `O=S(=O)(O)C(F)(F)C(F)(F)C(F)(F)C(F)(F)C(F)(F)C(F)(F)F` [Perfluorohexanesulfonic_acid], above 100 µM; as for `O=C(O)C(F)(F)C(F)(F)C(F)(F)C(F)(F)C(F)(F)F` [Perfluorohexanoic_acid], above 100 µM.
Regarding `O=C(O)C(F)(F)C(F)(F)C(F)(F)C(F)(F)C(F)(F)C(F)(F)C(F)(F)C(F)(F)F` [Perfluorononanoic_acid], the POD vs vehicle was above 100 µM.
Consider `NC(=O)C(F)(F)C(F)(F)C(F)(F)C(F)(F)C(F)(F)C(F)(F)C(F)(F)F` [Perfluorooctanamide], for which the POD vs vehicle was above 100 µM.
Molecule `N=C(N)C(F)(F)C(F)(F)C(F)(F)C(F)(F)C(F)(F)C(F)(F)C(F)(F)F` [Perfluorooctanamidine] showed a POD vs vehicle above 100 µM.
Molecule `O=S(=O)(O)C(F)(F)C(F)(F)C(F)(F)C(F)(F)C(F)(F)C(F)(F)C(F)(F)C(F)(F)F` [Perfluorooctanesulfonic_acid] returned a POD vs vehicle of 80.7 µM.
As for `O=C(O)C(F)(F)C(F)(F)C(F)(F)C(F)(F)C(F)(F)C(F)(F)C(F)(F)F` [Perfluorooctanoic_acid], the POD vs vehicle was above 100 µM.
`O=C(O)C(F)(F)C(F)(F)C(F)(F)C(F)(F)F` [Perfluoropentanoic_acid] gave a POD vs vehicle above 100 µM.
`O=C(O)C(F)(F)C(F)(F)F` [Perfluoropropanoic_acid] came in with a POD vs vehicle above 100 µM.
`O=S(=O)([O-])C(F)(F)C(F)(F)C(F)(F)C(F)(F)F.[K+]` [Potassium_perfluorobutanesulfonate] yielded a POD vs vehicle above 100 µM.

Another experiment concerns 1565 (donor line of iPSC-derived cardiomyocytes). The description is as above. The conditions noted are these: exposure time: 90 min. In a few lines:
as §1
Molecule `O=C(O)C(F)(F)C(F)(F)OC(F)(F)F` [Perfluoro-3-methoxypropanoic_acid] came in with a POD vs vehicle above 100 µM.
`O=C(O)C(F)(F)C(F)(F)C(F)(F)OC(F)(C(F)(F)F)C(F)(F)F` [Perfluoro-4-isopropoxybutanoic_acid] showed a POD vs vehicle above 100 µM.
Molecule `O=C(O)C(F)(F)C(F)(F)C(F)(F)F` [Perfluorobutanoic_acid] returned a POD vs vehicle above 100 µM.
`O=C(O)C(F)(F)C(F)(F)C(F)(F)C(F)(F)C(F)(F)C(F)(F)C(F)(F)C(F)(F)C(F)(F)F` [Perfluorodecanoic_acid] registered a POD vs vehicle above 100 µM.
Turning to `O=C(O)C(F)(F)C(F)(F)C(F)(F)C(F)(F)C(F)(F)C(F)(F)F` [Perfluoroheptanoic_acid], the POD vs vehicle is above 100 µM.
On the same count and under the same terms, next, `NS(=O)(=O)C(F)(F)C(F)(F)C(F)(F)C(F)(F)C(F)(F)C(F)(F)F` [Perfluorohexanesulfonamide]: 92 µM; `O=S(=O)(O)C(F)(F)C(F)(F)C(F)(F)C(F)(F)C(F)(F)C(F)(F)F` [Perfluorohexanesulfonic_acid]: 81.7 µM.
The molecule `O=C(O)C(F)(F)C(F)(F)C(F)(F)C(F)(F)C(F)(F)F` [Perfluorohexanoic_acid] returned a POD vs vehicle above 100 µM.
